# B1: KG10240: cassette (SEQ ID NO. 28) expressing all sgRNAs of KG10177, KG10190 and KG10191 separated by tRNA sequences (nucleic acid)
# DNA: GGAGTGATCAAAAGTCCCACATCGATCAGGTGATATATAGCAGCTTAGTTTATATAATGATAGAGTCGACATAGCGATTGAACAAAGCACCAGTGGTCTAGTGGTAGAATAGTACCCTGCCACGGTACAGACCCGGGTTCGATTCCCGGCTGGTGCACAAGTGCCGAGGAGGATGATGTTTTAGAGCTAGAAATAGCAAGTTAAAATAAGGCTAGTCCGTTATCAACTTGAAAAAGTGGCACCGAGTCGGTGCAACAAAGCACCAGTGGTCTAGTGGTAGAATAGTACCCTGCCACGGTACAGACCCGGGTTCGATTCCCGGCTGGTGCACATCCTCCTCGGCACTTGACGTTTTAGAGCTAGAAATAGCAAGTTAAAATAAGGCTAGTCCGTTATCAACTTGAAAAAGTGGCACCGAGTCGGTGCAACAAAGCACCAGTGGTCTAGTGGTAGAATAGTACCCTGCCACGGTACAGACCCGGGTTCGATTCCCGGCTGGTGCATTACCGGTCAAGTGCCGAGGGTTTTAGAGCTAGAAATAGCAAGTTAAAATAAGGCTAGTCCGTTATCAACTTGAAAAAGTGGCACCGAGTCGGTGCTTTTTTTCTAGACCCAGCTTTCTTGTACAAAGTTGGCATTACGCT
# modifications: KG10240
# Tests used:
# tomato protoplasts = assay: Recovery of chlorsulfuron resistant calli after transfection of tomato protoplasts; format: cell-based, Solanum lycopersicon var Moneyberg; conditions: ALS1/ALS2 alleles sequenced from chlorsulfuron resistant calli versus alleles seen only in protoplast sequence data
# Protocol: (§1) For the protoplast transfections 10 μg of KG9387 and 20 μg of one of the sgRNA expressing plasmids (KG10177, KG10190, KG10191, KG10240) mixed with 500 μL (500000 protoplasts) of the protoplast suspension and 500 μL of PEG solution (400 g/l poly(ethylene glycol) 4000, Sigma-Aldrich #81240; 0.1M Ca(NO3)2) was then added and the transfection was allowed to take place for 20 minutes at room temperature. Control samples were also produced by omitting one or both of the plasmids from the transfection. Then, 10 mL of 0.275 M Ca(NO3)2 solution was added and thoroughly, but gently mixed in. The protoplasts were harvested by centrifugation for 5 minutes at 800 rpm and resuspended in 9M culture medium at a density of 0.5×10^6 per ml and transferred to a 4 cm diameter petri dish and an equal volume of 2% alginate solution (20 g/l Alginate-Na (Sigma-Aldrich #A0682), 0.14 g/l CaCl2.2H2O, 90 g/l mannitol) was added. […]
# (§2) Total genomic DNA was isolated from tomato protoplasts (48 hrs post transfection) using the DNeasy Plant Mini Kit (Qiagen). […] After sequencing the reads derived from each sample were processed to identify the number and types of sequence changes present at the target site. […]
# [1] = system: ALS1/ALS2 target sequence; assay: Indel formation at the ALS1/ALS2 target sites in transfected tomato protoplasts (amplicon sequencing, MiSeq); format: cell-based, Solanum lycopersicon var Moneyberg; conditions: genomic DNA 48 hours after transfection
# Protocol: as §1, §2
Molecule,Chlorsulfuron resistance phenotype of the altered ALS allele (in words) (tomato protoplasts),Sequence reads with indels at ALS1 and ALS2 target sites (in words) [1]
"GQVPGGLMIGT: ALS amino acid change from other pairs of indels in the sequence data, not recovered in resistant calli",not resistance alleles,–
"GRRGGLIGT: ALS amino acid change from other pairs of indels in the sequence data, not recovered in resistant calli",not resistance alleles,–
B1,–,resulted in reads that contained more than one indel
